Test results from patent publication US20030061671A1, “Thioxanthone dyes with improved solubility and a method of preparing 2-oxybenzanthrones as intermediate materials for making of these dyes” (priority 2001, published 2003).
Like-named read-outs stand apart in the source and are kept apart here.

Assays:
[1] = Solubility comparison in chloroform (chloroform added to 0.1 g dye until full solubility); format: physicochemical
Description: Solubility Comparison of the Claimed compound and the Prototype
Two mixtures were prepared for comparison. The first one contained a dye prepared as per Example 1 by taking 0.1 g of the dye and adding chloroform until full solubility. The second mixture was prepared using 0.1 g of 6-methoxy-14H-anthra(2,1,9-mna)thioxanthene-14-one dye and also adding chloroform until its full solubility. At the end, 30 ml of chloroform was required to solute 0.1 g of the dye in the first mixture while 120 ml of the chloroform was required to solute the same amount of dye in case of the prototype.

[2] = colorant described by Carlini et al.; cited from earlier work

Compound	chloroform required to solute 0.1 g of the dye ([1]; 0.1 g dye, chloroform added until full solubility) [mL]	improvement in solubility in chloroform versus prototype ([1]; claimed dye vs 6-methoxy prototype, chloroform)	chloroform required to solute 0.1 g of the dye [1] [mL]	solubility in organic solvents and polymer materials [2]
6-n-Octyloxy-14H-anthra(2,1,9 mna)thioxanthene-14-one [Example 1]	30	four-fold		
COc1cc2c3ccccc3c(=O)c3ccc4c5ccccc5sc1c4c32 [6-methoxy-14H-anthra(2,1,9-mna)thioxanthene-14-one]			120	poorly soluble
